How the values were obtained:
Human 11β-HSD1 = Human 11β-HSD1 (Homo sapiens, UniProt P28845); experiment: Evaluation of compound against human 11β-HSD1 (HTRF cortisol assay); type: biochemical; conditions: substrate cortisone 5 μM, 37° C. for 2 hours, HTRF method
Description: (§1) After preincubating an inhibitor in a reaction solution consisting of 50 mM sodium phosphate buffer (pH 7.6), bovine serum albumin (1 mg/mL), NADPH (0.42 mg/mL), glucose-6-phosphate (1.26 mg/mL), glucose-6-phosphate dehydrogenase and an enzyme at room temperature for 30 minutes, cortisone (5 μM) which is a substrate was added (total amount 10 μL). After reacting at 37° C. for 2 hours, an XL-665-labeled cortisol solution (5 μL), and a Cryptate-labeled anti-cortisol antibody solution (5 μL) were added, a reaction was performed at room temperature for 2 hours, and fluorescence intensity (HTRF method) was measured. A cortisol concentration was measured from a standard curve prepared using a known concentration of cortisol for each assay.
(§2) Taking a concentration of cortisol generated in the absence of the inhibitor as a control value, 50% inhibition concentration (IC50 value) of the inhibitor against 11β-HSD1 was calculated from an inhibition curve plotting inhibition rate against the control value at each concentration of an inhibitor.

Mouse 11β-HSD1 = Mouse 11β-HSD1 (Mus musculus, UniProt P50172); experiment: Evaluation of compound against mouse 11β-HSD1 (HTRF corticosterone assay); type: biochemical; conditions: substrate 11-dehydrocorticosterone 2 μM, 37° C. for 2 hours, HTRF method
Mouse 11β-HSD1, sequence (P50172 whole entry): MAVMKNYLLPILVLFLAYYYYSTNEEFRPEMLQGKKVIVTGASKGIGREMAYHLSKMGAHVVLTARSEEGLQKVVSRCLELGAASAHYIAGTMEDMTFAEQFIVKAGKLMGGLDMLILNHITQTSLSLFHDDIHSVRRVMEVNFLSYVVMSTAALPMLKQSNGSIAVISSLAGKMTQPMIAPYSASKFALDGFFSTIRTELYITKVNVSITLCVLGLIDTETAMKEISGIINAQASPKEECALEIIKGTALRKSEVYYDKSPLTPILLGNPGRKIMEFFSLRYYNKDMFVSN
Description: as §1, with “dehydrogenase,” for “dehydrogenase”, “11-dehydrocorticosterone (2” for “cortisone (5”, “measured.” for “measured. A cortisol concentration was measured from a standard curve prepared using a known concentration of cortisol for each assay.”
A corticosterone concentration was measured from a standard curve prepared using a known concentration of corticosterone for each assay.
as §2, with “of corticosterone” for “of cortisol”, “of the” for “of an”

Human 11β-HSD1, sequence (P28845 whole entry): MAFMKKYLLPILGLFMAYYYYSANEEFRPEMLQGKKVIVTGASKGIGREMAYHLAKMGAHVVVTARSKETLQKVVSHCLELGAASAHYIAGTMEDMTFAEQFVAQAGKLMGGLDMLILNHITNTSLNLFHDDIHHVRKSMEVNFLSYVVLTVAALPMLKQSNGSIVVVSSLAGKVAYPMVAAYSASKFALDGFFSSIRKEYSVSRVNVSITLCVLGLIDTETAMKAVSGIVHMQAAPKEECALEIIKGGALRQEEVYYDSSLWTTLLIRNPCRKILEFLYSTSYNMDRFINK

With `CCN(C[C@@H]1CN(C2CCCCCCC2)C(=O)O1)S(=O)(=O)c1ccccc1` [Compound I-21] the IC50 (Human 11β-HSD1) was 0.43 µM and the IC50 (Mouse 11β-HSD1) was 8.4 µM.

From patent publication US7998992B2, “Oxazolidinone derivative having inhibitory activity on 11β-hydroxysteroid dehydrogenase type 1” (Institute of Medicinal Molecular Design, Inc., priority 2007, dated 2011)
